Measured values as given in ChEMBL document CHEMBL1201862, “PubChem BioAssay data set” (2004).
Active and inactive are the calls of the source.

How the values were obtained:
X-box-binding protein 1 = X-box-binding protein 1 (Homo sapiens, UniProt P17861); type: functional, Cricetulus griseus;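 further: confirmatory dose-response counter-screen serving a CHOP assay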
[1] = molecular target: DNA damage-inducible transcript 3 protein (Mus musculus, UniProt P35639); type: functional, Cricetulus griseus
Sequence of DNA damage-inducible transcript 3 protein (P35639 whole entry): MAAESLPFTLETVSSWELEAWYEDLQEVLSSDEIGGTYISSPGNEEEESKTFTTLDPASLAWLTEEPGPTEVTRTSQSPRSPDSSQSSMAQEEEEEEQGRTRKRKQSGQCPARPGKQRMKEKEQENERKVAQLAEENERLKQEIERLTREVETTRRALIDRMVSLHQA

[2] = molecular target: T1, E3 ubiquitin-protein ligase XIAP (Homo sapiens, UniProt P98170); assay: small molecules displacing peptide from XIAP – biochemical, IAP family, fluorescence polarization (AID 1018); type: functional
T1 sequence (P98170 whole entry): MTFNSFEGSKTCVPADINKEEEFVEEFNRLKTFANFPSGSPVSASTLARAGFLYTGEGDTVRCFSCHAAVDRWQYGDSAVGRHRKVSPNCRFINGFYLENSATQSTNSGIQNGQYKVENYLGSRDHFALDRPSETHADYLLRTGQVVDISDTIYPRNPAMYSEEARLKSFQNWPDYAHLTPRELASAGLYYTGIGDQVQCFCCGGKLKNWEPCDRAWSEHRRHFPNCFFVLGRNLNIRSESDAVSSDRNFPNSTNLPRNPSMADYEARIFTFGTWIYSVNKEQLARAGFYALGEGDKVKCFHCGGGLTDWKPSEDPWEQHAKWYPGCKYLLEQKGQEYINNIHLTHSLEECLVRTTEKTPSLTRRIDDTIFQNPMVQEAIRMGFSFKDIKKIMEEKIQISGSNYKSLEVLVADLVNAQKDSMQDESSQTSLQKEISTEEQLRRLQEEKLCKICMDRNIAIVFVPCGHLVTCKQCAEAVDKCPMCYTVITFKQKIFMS

[3] = molecular target: T1, E3 ubiquitin-protein ligase XIAP; assay: Counter Screen using XIAP-Bir3 for Chemical Antagonists of Bir1/2 domains of IAP-family anti-apoptotic proteins. [Related pubchem assays (depositor defined):AID1018, AID1449, AID1514, AID1638, AID1749, AID1750, AID488957, AID488963]
[4] = molecular target: Peroxisome proliferator-activated receptor gamma/Nuclear receptor coactivator 2 (Homo sapiens, UniProt P37231); assay: (§1) TR-FRET dose response biochemical High Throughput Screening assay for agonists of the steroid receptor coactivator 2 (SRC-2) recruitment by the peroxisome proliferator-activated receptor gamma (PPAR gamma): non-selective agonists. [Related pubchem assays: 1297, 1032 ]; type: functional
[5] = molecular target: Peroxisome proliferator-activated receptor gamma/Nuclear receptor coactivator 3 (Homo sapiens, UniProt P37231); assay: as §1, with “3 (SRC-3)” for “2 (SRC-2)”, “1301 (Confirmation screen.), 1048 (Primary screen.)]” for “1297, 1032 ]”; type: functional
[6] = molecular target: Peroxisome proliferator-activated receptor gamma/Nuclear receptor coactivator 1 (Homo sapiens, UniProt P37231); assay: as §1, with “1 (SRC-1)” for “2 (SRC-2)”, “assays (depositor defined):AID1300, AID1808, AID504735, AID631]” for “assays: 1297, 1032 ]”; type: protein assay
Sequence of Peroxisome proliferator-activated receptor gamma/Nuclear receptor coactivator 1 (P37231 whole entry): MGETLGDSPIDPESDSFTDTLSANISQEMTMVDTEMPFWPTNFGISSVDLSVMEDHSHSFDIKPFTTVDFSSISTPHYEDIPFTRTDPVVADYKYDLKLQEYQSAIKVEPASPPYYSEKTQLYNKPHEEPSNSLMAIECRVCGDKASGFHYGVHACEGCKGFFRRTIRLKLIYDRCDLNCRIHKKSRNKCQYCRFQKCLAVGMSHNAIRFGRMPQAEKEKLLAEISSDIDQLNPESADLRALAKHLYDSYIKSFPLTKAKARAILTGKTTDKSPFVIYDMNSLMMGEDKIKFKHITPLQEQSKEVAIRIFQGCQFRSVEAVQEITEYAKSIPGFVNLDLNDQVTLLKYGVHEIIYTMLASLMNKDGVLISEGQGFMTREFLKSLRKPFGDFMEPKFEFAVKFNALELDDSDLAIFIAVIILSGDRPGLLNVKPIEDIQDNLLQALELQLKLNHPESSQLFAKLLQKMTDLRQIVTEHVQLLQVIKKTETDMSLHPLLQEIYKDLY
Sequence of Peroxisome proliferator-activated receptor gamma/Nuclear receptor coactivator 1 (Q15788 whole entry, further chain): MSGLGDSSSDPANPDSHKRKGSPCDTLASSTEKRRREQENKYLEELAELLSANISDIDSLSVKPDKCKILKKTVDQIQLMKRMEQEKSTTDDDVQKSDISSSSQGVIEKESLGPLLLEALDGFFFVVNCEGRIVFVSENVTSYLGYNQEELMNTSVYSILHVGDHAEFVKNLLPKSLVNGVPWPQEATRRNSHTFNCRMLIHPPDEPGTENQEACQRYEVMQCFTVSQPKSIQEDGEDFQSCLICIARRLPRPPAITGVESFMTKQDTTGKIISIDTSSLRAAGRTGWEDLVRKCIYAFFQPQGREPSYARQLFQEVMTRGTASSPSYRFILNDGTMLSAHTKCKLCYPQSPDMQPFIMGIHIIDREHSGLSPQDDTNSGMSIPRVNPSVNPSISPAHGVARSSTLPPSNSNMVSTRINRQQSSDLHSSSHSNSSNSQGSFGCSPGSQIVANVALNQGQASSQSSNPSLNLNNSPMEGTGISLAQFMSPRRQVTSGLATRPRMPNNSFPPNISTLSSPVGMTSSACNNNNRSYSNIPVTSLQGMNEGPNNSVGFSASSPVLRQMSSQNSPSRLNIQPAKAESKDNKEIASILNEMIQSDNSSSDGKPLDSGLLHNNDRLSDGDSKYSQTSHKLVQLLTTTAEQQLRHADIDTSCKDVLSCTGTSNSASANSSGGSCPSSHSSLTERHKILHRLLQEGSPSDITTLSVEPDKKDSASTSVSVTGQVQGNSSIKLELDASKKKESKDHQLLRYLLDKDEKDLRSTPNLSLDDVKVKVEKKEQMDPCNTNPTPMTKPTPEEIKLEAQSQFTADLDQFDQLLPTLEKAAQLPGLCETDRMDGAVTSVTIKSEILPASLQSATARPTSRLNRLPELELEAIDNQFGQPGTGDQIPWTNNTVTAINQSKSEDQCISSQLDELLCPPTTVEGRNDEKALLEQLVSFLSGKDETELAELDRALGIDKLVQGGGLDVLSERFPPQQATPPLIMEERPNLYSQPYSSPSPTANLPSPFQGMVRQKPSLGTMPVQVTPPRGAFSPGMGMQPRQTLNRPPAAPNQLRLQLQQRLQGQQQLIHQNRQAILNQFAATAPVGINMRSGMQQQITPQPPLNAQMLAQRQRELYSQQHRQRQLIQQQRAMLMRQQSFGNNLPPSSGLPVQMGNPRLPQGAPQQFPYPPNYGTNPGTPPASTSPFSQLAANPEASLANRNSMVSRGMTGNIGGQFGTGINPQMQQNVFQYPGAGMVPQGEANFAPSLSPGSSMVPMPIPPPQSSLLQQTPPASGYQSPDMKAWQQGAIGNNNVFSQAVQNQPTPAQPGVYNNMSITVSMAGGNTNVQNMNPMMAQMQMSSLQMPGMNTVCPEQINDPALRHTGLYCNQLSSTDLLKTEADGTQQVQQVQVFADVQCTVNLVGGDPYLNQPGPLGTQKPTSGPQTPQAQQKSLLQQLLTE

[7] = molecular target: T2, G-protein coupled receptor 35 (Homo sapiens, UniProt Q9HC97); assay: SAR analysis of Antagonists of the GPR35 Receptor using an Image-Based Assay - Set 4. [Related pubchem assays (depositor defined):[…]]; type: functional
T2 sequence (Q9HC97 whole entry): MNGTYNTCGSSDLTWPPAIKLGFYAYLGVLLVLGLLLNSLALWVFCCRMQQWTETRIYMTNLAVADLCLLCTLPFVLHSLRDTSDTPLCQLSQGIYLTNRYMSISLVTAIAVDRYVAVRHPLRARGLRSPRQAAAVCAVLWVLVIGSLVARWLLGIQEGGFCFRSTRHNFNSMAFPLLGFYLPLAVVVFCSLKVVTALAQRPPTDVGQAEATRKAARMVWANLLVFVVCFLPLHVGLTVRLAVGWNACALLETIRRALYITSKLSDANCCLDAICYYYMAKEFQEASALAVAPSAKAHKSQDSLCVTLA

Cannabinoid receptor 1 [8] = molecular target: T3, Cannabinoid receptor 1 (Homo sapiens, UniProt P21554); assay: SAR analysis of antagonists of the Cannabinoid Receptor 1 using an Image-Based Assay - Set 3. [Related pubchem assays (depositor defined):AID1961, AID1965]; type: functional
T3 sequence (P21554 whole entry): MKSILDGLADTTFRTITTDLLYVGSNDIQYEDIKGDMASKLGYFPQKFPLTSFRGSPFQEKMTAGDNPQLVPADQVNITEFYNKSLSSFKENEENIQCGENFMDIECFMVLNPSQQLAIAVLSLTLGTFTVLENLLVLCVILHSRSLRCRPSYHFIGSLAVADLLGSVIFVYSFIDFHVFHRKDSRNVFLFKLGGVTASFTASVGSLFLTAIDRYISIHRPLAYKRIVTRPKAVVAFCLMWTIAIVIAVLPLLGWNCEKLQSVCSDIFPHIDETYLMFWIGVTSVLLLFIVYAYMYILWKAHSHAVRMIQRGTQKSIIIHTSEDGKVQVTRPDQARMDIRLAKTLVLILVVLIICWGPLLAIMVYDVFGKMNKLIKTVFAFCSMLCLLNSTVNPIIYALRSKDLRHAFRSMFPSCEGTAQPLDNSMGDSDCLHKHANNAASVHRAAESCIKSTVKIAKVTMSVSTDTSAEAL

[9] = molecular target: G-protein coupled receptor 55 (Homo sapiens, UniProt Q9Y2T6); assay: SAR analysis of selective Agonists of GPR55 using an Image-Based Assay - Set 2. [Related pubchem assays (depositor defined):AID1961, AID1965]; type: functional
Sequence of G-protein coupled receptor 55 (Q9Y2T6 whole entry): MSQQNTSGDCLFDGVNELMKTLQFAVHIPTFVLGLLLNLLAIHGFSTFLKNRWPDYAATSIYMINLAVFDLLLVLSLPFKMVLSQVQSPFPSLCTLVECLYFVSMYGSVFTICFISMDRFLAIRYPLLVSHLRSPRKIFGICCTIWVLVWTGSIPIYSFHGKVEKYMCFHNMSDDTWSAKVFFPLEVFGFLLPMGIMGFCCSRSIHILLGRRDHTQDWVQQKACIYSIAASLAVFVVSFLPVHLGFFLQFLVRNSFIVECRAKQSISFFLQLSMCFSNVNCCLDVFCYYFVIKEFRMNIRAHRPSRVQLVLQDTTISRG

Cannabinoid receptor 2 [10] = molecular target: T4, Cannabinoid receptor 2 (Homo sapiens, UniProt P34972); assay: SAR analysis of antagonists of the Cannabinoid Receptor 2 using an Image-Based Assay - Set 2. [Related pubchem assays (depositor defined):AID1961, AID1965]; type: functional
T4 sequence (P34972 whole entry): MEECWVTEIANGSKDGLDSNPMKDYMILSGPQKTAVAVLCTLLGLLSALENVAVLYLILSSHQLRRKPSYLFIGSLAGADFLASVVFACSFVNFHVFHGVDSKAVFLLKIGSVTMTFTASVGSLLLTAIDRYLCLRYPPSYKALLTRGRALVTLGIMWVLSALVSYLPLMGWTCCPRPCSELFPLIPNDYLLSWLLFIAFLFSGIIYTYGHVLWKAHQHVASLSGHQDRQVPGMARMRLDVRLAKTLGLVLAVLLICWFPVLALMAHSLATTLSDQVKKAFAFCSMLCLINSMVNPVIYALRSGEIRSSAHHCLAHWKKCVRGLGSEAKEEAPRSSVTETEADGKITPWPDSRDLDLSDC

[11] = molecular target: T2, G-protein coupled receptor 35; assay: SAR analysis of Agonists of the GPR35 Receptor using an Image-Based Assay - Set 3. [Related pubchem assays (depositor defined):AID1961, AID1965]; type: functional
Cannabinoid receptor 2 [12] = molecular target: T4, Cannabinoid receptor 2; assay: SAR analysis of agonists of the Cannabinoid Receptor 2 using an Image-Based Assay - Set 2. [Related pubchem assays (depositor defined):AID1961, AID1965]; type: functional
Cannabinoid receptor 1 [13] = molecular target: T3, Cannabinoid receptor 1; assay: SAR analysis of agonists of the Cannabinoid Receptor 1 using an Image-Based Assay - Set 3. [Related pubchem assays (depositor defined):AID1961, AID1965]; type: functional
[14] = Luminescence Cell-Based Dose Response HTS to Identify Inhibitors of Luciferase Translation or Activity in H4-C Neuroglioblastoma Cells. [Related pubchem assays: 1813 (Primary HTS), 1827 (Project Summary)]; type: functional
[15] = Luminescence Cell-Based Dose Confirmation HTS to Identify Inhibitors of 5'UTR Stem-Loop Driven Alpha-Synuclein mRNA Translation in H4 Neuroglioblastoma Cells. [Related pubchem assays: 1827 (Project Summary), 1813 (Primary HTS)]; type: functional
[16] = Luminescence Cell-Based Dose HTS Response to Identify Inhibitors of 5'UTR Stem-Loop Driven Prion Protein mRNA Translation in H4-C Neuroglioblastoma Cells. [Related pubchem assays (depositor defined):AID1814, AID1827]; type: functional
[17] = Luminescence Cell-Based Dose Response HTS to Identify Inhibitors of 5'UTR Stem-Loop Driven Prion Protein mRNA Translation in H4 Neuroglioblastoma Cells. [Related pubchem assays: 1827 (Project Summary), 1813 (Primary HTS)]; type: functional
[18] = Luminescence Cell-Based Dose Retest to Confirm Activators of 5'UTR Stem-Loop Driven Alpha-Synuclein mRNA Translation in H4 Neuroglioblastoma Cells. [Related pubchem assays (depositor defined):AID1813, AID1829]; type: functional
BJ [19] = assay: BJ-TERT fibroblast viability loss – cell-based, RAS-independent, luminescence, dose response (AID 1933); type: functional; conditions: Homo sapiens
[20] = HEK-293T viability loss after treatment – luminescence, T-cell screen hits, cytotoxicity control for TCR NF-kB inhibitor project, dose response (AID 489026); type: functional, cell-based;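 further: cells exposed to compound about 14 hours before the viability readout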
[21] = Luminescence Cell-Based Dose Response HTS to Identify Activators of 5'UTR Stem-Loop Driven Prion Protein mRNA Translation in H4-C Neuroglioblastoma Cells. [Related pubchem assays: 1829 (Project Summary), 1814 (Primary HTS)]; type: functional
[22] = luciferase reporter signal suppression in cells – H4 neuroglioma cells, luminescence, dose response (AID 1990); type: functional, cell-based
BJ [23] = assay: cells; type: functional, cell-based; conditions: Homo sapiens
[24] = alpha-synuclein stem-loop luciferase translation blockers – H4 neuroglioma cells, luminescence, confirmation (AID 1988); type: functional, cell-based
[25] = DRD fibroblast viability loss – cell-based, non-viral oncogenic, luminescence, dose response (AID 1934); type: functional; conditions: Homo sapiens
BJ [26] = assay: BJ-TERT-LT-ST fibroblast viability loss – cell-based, RAS-independent, luminescence, dose response (AID 1935); type: functional; conditions: Homo sapiens;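 further: BJ fibroblasts immortalized with TERT plus LT and ST oncogenes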
[27] = Luminescence Cell-Based Dose Response HTS to Identify Activators of Luciferase Translation or Activity in H4-C Neuroglioblastoma Cells. [Related pubchem assays: 1829 (Project Summary), 1814 (Primary HTS)]; type: functional
Transthyretin = Transthyretin (Homo sapiens, UniProt P02766); assay: Luminescence-based cell-based high throughput dose response assay to identify activators of Transthyretin (TTR) transcription.; type: functional

Sequence of X-box-binding protein 1 (P17861 whole entry): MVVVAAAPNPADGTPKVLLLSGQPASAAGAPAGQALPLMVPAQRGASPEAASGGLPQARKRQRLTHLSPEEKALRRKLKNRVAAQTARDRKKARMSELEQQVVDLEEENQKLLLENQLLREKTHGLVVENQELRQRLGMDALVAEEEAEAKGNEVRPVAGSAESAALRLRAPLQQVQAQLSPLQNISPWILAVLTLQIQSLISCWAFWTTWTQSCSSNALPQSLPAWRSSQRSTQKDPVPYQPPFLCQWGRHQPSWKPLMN

## COc1cccc(Nc2ncnc3c2cnn3-c2cccc(C)c2)c1
X-box-binding protein 1
  Absolute IC50 (XBP1): 10 µM
[1]
  Absolute IC50 (CHOP): 10 µM

## CC(C)CNS(=O)(=O)c1ccc(CCC(=O)N2CCN(Cc3ccccc3)CC2)cc1
[2]
  IC50: > 100 µM (not active)
[3]
  IC50: > 100 µM (inactive)

## c1cc2c(cnc3cscc32)s1
[4]
  EC50: 12 µM (not active)
[5]
  EC50: 69.3 µM (not active)
[6]
  EC50: 8.78 µM (active)

## Cc1ccccc1N1CCN(C(=O)c2cc(S(=O)(=O)N3CCCCC3)ccc2N2CCCC2)CC1
[7]
  IC50: > 32 µM (inactive)
Cannabinoid receptor 1 [8]
  IC50: > 32 µM (inactive)
[9]
  EC50: > 32 µM (inactive)
Cannabinoid receptor 2 [10]
  IC50: > 32 µM (inactive)
[11]
  EC50: > 32 µM (inactive)
Cannabinoid receptor 2 [12]
  EC50: > 32 µM (inactive)
Cannabinoid receptor 1 [13]
  EC50: > 32 µM (inactive)

## CCOC(=O)Nc1nc(-c2ccccc2)c(C(=O)c2ccc(Cl)cc2)s1
[14]
  EC50: 2.32 µM (active)
[15]
  EC50: 1.76 µM (active)
[16]
  EC50: 1.95 µM (active)
[17]
  EC50: 3.25 µM (active)
[18]
  EC50: 1.76 µM (inconclusive)
BJ [19]
  EC50: 1.26 µM (inconclusive)
[20]
  IC50: > 80 µM (inactive)
[21]
  EC50: 1.95 µM (inconclusive)
[22]
  EC50: 5.3 µM (active)
BJ [23]
  EC50: 15.6 µM (active)
[24]
  EC50: 0.108 µM (active)
[25]
  EC50: 1.28 µM (active)
BJ [26]
  EC50: 1.45 µM (inconclusive)
[27]
  EC50: 2.32 µM (inconclusive)
Transthyretin
  EC50: > 167 µM (inactive)
